One molecule from patent publication US20230338391A1, “TREATMENT FOR DEPRESSION” (TAKEDA PHARMACEUTICAL COMPANY LIMITED, priority 2020, published 2023) can be followed below.

One series relates to healthy subjects. The series can be described thus: TMS crossover study: safety and tolerability. To be noted: single doses 0.5 mg and 6 mg oral tablets.
Series [1] in a line: 13-week NHP GLP toxicity study: toxicokinetics. The format is in vivo, Monkey (Macaca fascicularis). To be noted: cynomolgus monkey, plasma, oral; range across all TK sampling days (1st, 29th, 90th dosing). Here is the method:
Blood samples (a target of 0.5 mL each, Na-heparin tubes) were collected from all animals at the following timepoints: • Phase 1: at 4 hours after dosing. • Phase 2: Plasma concentrations of COMPOUND A and its metabolites were determined for all dose groups after the 1st, the 29th dosing and the 90th dosing. Blood collection occurred in each animal in all groups before dosing (at the 29th and 90th dose only) and 1, 2, 4, 8, and 24 hours after dosing. Blood samples were collected into Na-heparin tubes via the implanted catheter or from the jugular, cephalic or femoral vein by venipuncture; tubes were kept on wet ice pending centrifugation. The blood samples were centrifuged at 5400×g for 5 minutes under cooling conditions (set to 4° C.) to obtain the plasma. The plasma was divided into duplicate samples (at least 100 μL each) and was kept on dry ice and stored in a freezer set to −20° C. until shipment. Back-up samples (set 2 of 2) were stored separately from set 1 of 2.
Non-compartmental toxicokinetic analysis was performed by the subcontractor on the plasma concentration data for COMPOUND A, and its metabolites using validated WinNonlin software. The TK parameters (tmax, Cmax, t1/2, MRT24, MRTinf, AUC24 and AUCinf) were calculated for all animals except for the control animals.

The next series relates to MEPs. Description: Nonclinical MEP amplitude in rats. Type of series: in vivo. As to conditions: nonclinical data.
Series [2] is described as follows: 13-week NHP GLP toxicity study: clinical signs, EEG/EMG telemetry, pathology. Type of series: in vivo, Monkey (Macaca fascicularis). To be noted: cynomolgus monkey, in vivo, oral gavage once daily, 13 weeks, read-out: no-observed-adverse-effect level (NOAEL). Here is the method: (§1) The appropriate volume of reverse osmosis water was added into a suitable sized container and heated between 70° C. and 90° C. An appropriate amount of MC (METOLOSE SM-100, Shin-Etsu Chemical Co Ltd) was weighed and transferred (while stirring) to the container with heated reverse osmosis water. The solution was cooled down until a clear solution was obtained (an ice bath was used). The solution was stored refrigerated (set to 2-8° C.) until used. Unused reference item/vehicle was discarded when not needed anymore. To make a 0.2 w/v % suspension of COMPOUND A, an appropriate amount of the test item was weighed. A small volume of vehicle was added to slowly wet the test item. The appropriate volume of vehicle was added to reach the final volume and the formulation was homogenized using a homogenizer until a uniform suspension was achieved and stirred for 30 to 59 minutes. The 0.2 w/v % suspension was then diluted with the 0.5 w/v % MC in reverse osmosis water solution to make 0.12, 0.06 and 0.006 w/v % suspensions. However, on Oct. 1, 2015, the 1.2 mg/mL formulation was prepared by dissolving the appropriate amount of COMPOUND A in the vehicle, instead of diluting the 2 mg/mL formulation to reach the appropriate concentration. This deviation had no impact on the study since the appropriate concentration was prepared.
(§2) After suitable acclimation to the dosing procedure, the reference item (0.5% methylcellulose (MC) in reverse osmosis water) was administered once by oral gavage during Phase 1 of the study. The objective of Phase 1 was to confirm the EEG morphologies in all animals before and after dosing procedures. The traces generated during Phase 1 were used for interpretation of Phase 2 data. Beginning 1 day later, the reference item or COMPOUND A was administered once daily by oral gavage for 90 days during Phase 2 as shown in Table 7.
(§3) Clinical signs (ill health, behavioral changes, etc.) were recorded on surviving animals twice daily during all phases of study and monitored continuously for at least 16 hours after the 1st, 3rd, 7th, 14th and 28th dose administration in Phase 2, using digital cameras (to minimize stress for the animals) or using direct observation when needed or during dose administration. Additional clinical observations were performed when deemed necessary.
(§4) EEGs and EMGs were obtained from the animals using telemetry transmitter leads inserted subcutaneously using bipolar derivations (EMG, C4-O2 and Cz-Oz).
(§5) EEG and EMG monitoring was recorded continuously (except during study designated procedures or other procedures such as data backup) from at least 72 hours prior to the first dose of Phase 1 to at least 24 hours after the 28th dose of Phase 2. EEG and EMG monitoring was also recorded continuously (except during study designated procedures or other procedures such as data backup) for a period of at least 36 hours (from at least 12 hours prior to dosing until at least 24 hours post-dosing) once in the 8th week of dosing and once towards the end of the dosing period (13th week of dosing) in Phase 2.
(§6) Using the NeuroScore software (Data Science International), EEGs were analyzed from at least 24 hours prior to the first dose of Phase 1 to at least 24 hours after the 28th dose in Phase 2, and for a period of at least 36 hours (from at least 12 hours prior to dosing until at least 24 hours post-dosing) once in the 8th week of dosing and once towards the end of the dosing period (13th week of dosing) in Phase 2. […] EMGs were used to aid in the interpretation of the EEG data.
(§7) EEGs were reviewed by the Neurologist at the following timepoints: 1-1.5, 2.5-5.5, and 7-7.5 hours following the 1st, 3rd, 7th, 14th and 28th dose administration in Phase 2. The observance of abnormal behaviors/convulsions in individual animals by laboratory personnel also triggered an EEG review for approximately the same time period during which the abnormal behavior was witnessed. […]

A further series has as its system cynomolgus monkeys. The series is described as above. The format is in vivo, Monkey (Macaca fascicularis). Here is the method:
as §1, §2, §3, §4, §5, §6, §7

For a further series, the system named is CNS excitability. Description: TMS crossover study of CNS PD activity in healthy subjects.
[3] abbreviates: 0.5 mg and 6 mg single oral doses.

“Also recorded” adds a separate entry of the source. Read-outs that look alike come from different tables or passages of the source.

As to `CC1=CN2CCS(=O)(=O)N=C2C(c2ccc(OC3CCCCC3)cc2)=N1` [COMPOUND A, 9-[4-(Cyclohexyloxy)phenyl]-7-methyl-3,4-dihydropyrazino[2,1-c][1,2,4]thiadiazine 2,2-dioxide], the “deaths or SAEs” value in the series on healthy subjects was “No deaths or SAEs were reported”. Besides, the Tmax in series [1] lay within 2 to 15 h. Besides, the “amplitude of MEPs” value in the series on MEPs is “increases the amplitude of MEPs in rats”. For the same molecule, the NOAEL at 13 weeks turned out to be 3 mg/kg/day in series [2] (female, females) and 10 mg/kg/day in series [2] (male, males). Besides, the qEEG total power result in the series on cynomolgus monkeys (0.3 and 3 mg/kg/day, after 2nd and 27th dose) is reported as “associated with an increase in total EEG power”. For the same molecule, the “clinical signs and EEG” value in the series with cynomolgus monkeys (0.3 or 3.0 mg/kg/day, males or females) is listed as “no adverse clinical signs or abnormal EEG changes”. Further, the clinical signs result in the series on cynomolgus monkeys (females, 6.0 mg/kg/day) was “myoclonic jerks, decreased activity, weakness, and uncoordination were observed”; in the series on cynomolgus monkeys (females, 10.0 mg/kg/day) it was “salivation, excessive licking, decreased activity, weakness, lying on cage floor, nystagmus, uncoordination, muscle twitches and myoclonic jerks were observed”; in the series with cynomolgus monkeys (males, 10 mg/kg/day), “decreased activity, tremors and circling were observed at 10 mg/kg/day but were not considered adverse”. Besides, in the series with cynomolgus monkeys (females, 10.0 mg/kg/day), the “generalized seizures (EEG)” value was “Self-limiting generalized seizures, confirmed by EEG, were observed in two female monkeys”. In addition, the “SICI measurements and other secondary endpoints” value in the series with CNS excitability (setting [3]) is “not statistically significant”. Also, in the series on CNS excitability (setting [3]), the “changes from baseline in the rMT, single-pulse TMS” value was “not statistically significant”. Also, in the series with CNS excitability (0.5 mg single oral dose, 2.5 hours post-dose), the “change from baseline of LICI 300 ms” value is listed as “statistically significant PD effect”. Moreover, the “peak-to-peak amplitude of the MEP, single-pulse TMS, change from baseline vs placebo” value in the series on CNS excitability (6 mg single oral dose, 2.5 hours post-dose, stimulation intensity 120% of baseline rMT) was “statistically significant difference from baseline when compared with placebo; also recorded: statistically significant PD effect”.
